The record followed here is patent EP4656640A1, “IRAK4 DEGRADER AND USE THEREOF” (Shanghai Qilu Pharmaceutical Research and Development …, priority 2023, dated 2024).

Read-outs that look alike come from different tables or passages of the source.

Series [1] can be described thus: Dog pharmacokinetics, oral gavage (Experiment 3). The class given is in vivo. As to conditions: Beagle dogs, oral gavage 2.5 mg/kg, plasma. On the procedure:
Healthy Beagle dogs, male, weighing about 8-10 kg, 3 animals per group.
The animals were not fasted and had free access to water.
Venous blood (0.5-0.8 mL) was collected at 15 minutes, 30 minutes, 1 hour, 2 hours, 4 hours, 8 hours, and 24 hours after oral gavage administration, placed in K2EDTA tubes, and centrifuged at 4°C to separate plasma. The concentration of the compound in plasma was determined by liquid chromatography-tandem mass spectrometry.
The main pharmacokinetic parameters were calculated using WinNonlin. […] Table 8. Pharmacokinetic parameters of some compounds of the present disclosure administered orally to dogs

The conditions of series [2]: mice, 8 hours after last administration.
Description: Experimental animals: SPF-grade male C57BL/6J mice aged 6-8 weeks.
Preparation of compound: 10% DMSO + 50% PEG400 + 40% sterile water for injection. The compound was dissolved in DMSO, followed by the addition of PEG400 and sterile water for injection, and the solution was adjusted to clarity with 6N hydrochloric acid.
Compound administration and IL-33 inflammatory induction: The mice were randomly grouped according to body weight and orally administered with the compound at final doses of 15 mg/kg, 50 mg/kg, and 150 mg/kg, twice daily. At 4 hours after the last administration of the compound, the mice were intraperitoneally injected with 1 µg/100 µL PBS of IL-33 for inflammatory induction.
Termination, sample collection, and data: Plasma, peritoneal lavage fluid, and spleen were collected for subsequent sample index detection.
The experiment was terminated 8 hours after the last administration. The mice were anesthetized, and cardiac blood was collected. The blood samples were anticoagulated with EDTA-K2, centrifuged at 3500 rpm for 15 minutes, and the upper plasma was collected.
The target in a further series is hERG potassium channel (Homo sapiens, UniProt Q12809). The series is described as follows: Inhibition of hERG potassium channel, whole-cell manual patch clamp in CHO-hERG cells. As to conditions: @ 1 µM test compound. (In general: The hERG channel carries a current that helps repolarise heart muscle cells.)
Another series deals with IL-6 secretion. The series is described as follows: Inhibition of induced IL-6 secretion in human PBMCs (CBA). As to conditions: PBMC. The class given is cell-based. On the procedure:
(§1) The effect of PROTAC small molecules on inflammatory factors in PBMCs downstream of IRAK4 induced by TLR and IL-1 was detected based on the CBA (cytometric bead array) method.
(§2) Step 2: The density of PBMCs was adjusted to 1 E6/mL, and 150 µL of PBMCs in 1640 complete medium were seeded into a 96-well plate, followed by incubation at 37°C for 1 hour.
(§3) Step 3: 50 µL of serially diluted small molecule (working concentration: 10000 nM, 1:3 dilution) drugs were inoculated into the plate in a 37°C incubator for 8 hours.
(§4) Step 4: 10 µL of stimulants were added respectively, with final concentrations of 100 ng/mL for LPS, 1 µg/mL for R848, and 100 ng/mL for IL-1β.
(§5) Step 5: CBA assay. The concentrations of IL-6 and TNF-α in the cell culture supernatant were determined using Hu IL-6 CBA Flex Set A7 and Hu TNF- CBA Flex Set D9.
(§6) Step 6: Standard samples were prepared: 2500 pg/mL, 1250 pg/mL,...0. A 1:2 serial dilution was performed to obtain 10 concentrations.
(§7) Step 7: The mixed capture beads were resuspended in capture bead diluent (1:50), and cell culture supernatant (50 µL) was added, followed by incubation at room temperature for 10 minutes.
(§8) Step 8: The detection reagent prepared with detection diluent was added, and the mixture was incubated in the dark at room temperature for 3 hours. At the end of incubation, the samples were washed once with wash buffer and resuspended for detection.
(§9) The concentrations of IL-6 and TNFα were calculated using the standard curve method. Data presentation and IC50 calculation were performed using Prism 8.0.2.

A further series relates to TNFα secretion. As to the kind of experiment: Inhibition of induced TNFα secretion in human PBMCs (CBA). In kind it is cell-based. To be noted: PBMC. On the procedure: as §1, §2, §3, §4, §5, §6, §7, §8, §9
In series [3] the target is T1, IRAK4 (Homo sapiens, UniProt Q9NWZ3).
T1 sequence (Q9NWZ3 1-460): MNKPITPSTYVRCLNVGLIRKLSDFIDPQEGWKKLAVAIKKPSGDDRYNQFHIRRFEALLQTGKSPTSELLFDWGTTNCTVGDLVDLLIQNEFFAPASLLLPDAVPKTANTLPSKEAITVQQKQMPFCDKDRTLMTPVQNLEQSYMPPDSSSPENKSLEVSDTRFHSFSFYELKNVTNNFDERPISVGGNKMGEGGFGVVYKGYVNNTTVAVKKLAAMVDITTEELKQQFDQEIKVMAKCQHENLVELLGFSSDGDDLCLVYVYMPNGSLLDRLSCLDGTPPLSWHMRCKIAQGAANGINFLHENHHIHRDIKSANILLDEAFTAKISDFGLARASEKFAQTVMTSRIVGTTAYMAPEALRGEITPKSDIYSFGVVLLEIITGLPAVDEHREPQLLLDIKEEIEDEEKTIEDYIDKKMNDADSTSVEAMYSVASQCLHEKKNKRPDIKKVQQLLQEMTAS
The series is described as follows: Degradation of IRAK4 in monocytes of human PBMCs (flow cytometry). The class given is cell-based. Also noted: endogenous in cells. To be noted: human PBMC monocytes, 24 hours incubation. On the procedure: The degradation level of IRAK4 in monocytes of human peripheral blood mononuclear cells (hPBMCs) was detected by flow cytometry.
On day 1, the cells were seeded at a density of 2 × 10^5 cells per well in 100 µL in a 96-well plate.
The compounds were dissolved in DMSO to a final concentration of 10 mM, and then diluted with culture medium at a 1:5 concentration gradient to prepare 10 concentrations. The diluted solutions were added to the cells to obtain a maximum final concentration of 2 µM. Wells containing cells treated with 0.1% DMSO served as the positive control
The cells were incubated at 37°C in a 5% CO2 incubator for 24 hours.
The cells were stained for viability discrimination using the LIVE/DEAD™ Fixable Blue Dead Cell Stain Kit, and surface staining of monocytes was performed with PE Mouse Anti-Human CD14, followed by incubation at 4°C for 30 minutes.
Fix buffer I, equal in volume to the cultured cells, was added, and the cells were fixed at 37°C for 10 minutes.
150 µL of Perm III reagent was added, and the cells were incubated at 4°C for 30 minutes to permeabilize the membranes.
(§10) Flow cytometry analysis was performed using a flow cytometer.
The flow cytometry data were analyzed using Flowjo software. Data presentation and DC50 calculation were performed using Prism 8.0.2 (GraphPad).
For orientation: A flow cytometer gives signals particle by particle.

In series [4] the target is T1, IRAK4. As to the kind of experiment: Degradation of IRAK4 in SU-DHL-2 cells (flow cytometry). The class given is cell-based. Also noted: The degradation level of IRAK4 protein in SU-DHL-2 cell line by the compounds was detected by flow cytometry; endogenous in cells; host or cells: SU-DHL-2; OCI-LY3. As to conditions: SU-DHL-2 cells, 24 hours incubation; read-out: SU-DHL-2 DC50. The protocol: The degradation level of IRAK4 protein in SU-DHL-2 cell line by the compounds was detected by flow cytometry.
Step 2: On day 1, the cells were seeded at a density of 2 × 10^5 cells per well in 100 µL in a 96-well plate. The compounds were dissolved in DMSO to a final concentration of 10 mM, and then diluted with culture medium at a 1:5 concentration gradient to prepare 10 concentrations. The diluted solutions were added to the cells to obtain a maximum final concentration of 2 µM. Wells containing cells treated with 0.1% DMSO served as the […] The cells were incubated at 37°C in a 5% CO2 incubator for 24 hours.
Step 3: After centrifugation, the cells were washed with FACS buffer. The cells were stained for viability discrimination using the LIVE/DEAD™ Fixable Blue Dead Cell Stain Kit, and surface staining of monocytes was performed with PE Mouse Anti-Human CD14, followed by incubation at 4°C for 30 minutes.
Step 4: After centrifugation, the cells were washed with FACS buffer. Fix buffer I, equal in volume to the cultured cells, was added, and the cells were fixed at 37°C for 10 minutes.
Step 5: After centrifugation, the cells were washed with FACS buffer. 150 µL of Perm III reagent was added, and the cells were incubated at 4°C for 30 minutes to permeabilize the membranes. After centrifugation, the cells were washed with FACS buffer.
as §10
The flow cytometry data were analyzed using Flowjo software. Data presentation and DC50 (half-maximal degradation concentration) calculation were performed using Prism 8.0.2 (GraphPad).

Series [5] in a line: Mouse pharmacokinetics, oral (Experiment 1). As to conditions: mice, PO 100 mg/kg, fasted overnight, plasma. The class given is in vivo, C57BL/6 mice. The protocol:
C57BL/6 mice were used as test animals to study the pharmacokinetic behavior of the compounds of the present disclosure in mouse plasma after oral administration at a dose of 100 mg/kg.
C57BL/6, male, transferred from the animal repository of the laboratory institution (999M-018).
Three male C57BL/6 mice were fasted overnight (10-14 hours) with free access to water one day before administration. The mice were fed 4 hours after administration. The dose for PO administration was 100 mg/kg, with an administration volume of 20 mL/kg.
After administration, blood samples (0.03 mL) were collected from the mice via venipuncture at 0.083, 0.25, 0.5, 1, 2, 4, 8, and 24 hours. The samples were placed in EDTA-K2 tubes and centrifuged at 6800 rpm for 5 minutes at 2-8°C. The plasma was separated and stored at -80°C.
• 1) 10 µL of plasma sample was added to 200 µL of methanol for precipitation. After mixing, the mixture was centrifuged at 18000 g for 10 minutes. • 2) The processed supernatant solution was taken for LC/MS/MS analysis to determine the concentration of the test compound.
• Liquid phase conditions: Shimadzu LC-30AD pump • Mass spectrometry conditions: AB Sciex API 5500 mass spectrometer • Chromatographic column: Phenomenex Kinetex 2.6 µm C18 50 3.0 mm • Mobile phase: Solution A was 0.1% formic acid in water, and solution B was 0.1% formic acid in acetonitrile • Flow rate: 0.6 mL/min • Elution time: Gradient elution for 0-1.6 minutes.
The main pharmacokinetic parameters were calculated using WinNonlin 8.0.

[6] abbreviates: IL-1β 100 ng/mL, read-out: IC50 of compounds against induced secretion, IL-6, IL-1β.
[7] abbreviates: LPS 100 ng/mL, read-out: IC50 of compounds against induced secretion, IL-6, LPS.
Where [8] appears, read: R848 1 µg/mL, read-out: IC50 of compounds against induced secretion, IL-6, R848.
Where [9] appears, read: IL-1β 100 ng/mL, read-out: IC50, TNFα secretion induced by IL-1β.
Where [10] appears, read: LPS 100 ng/mL, read-out: IC50, TNFα secretion induced by LPS.
Where [11] appears, read: R848 1 µg/mL, read-out: IC50, TNFα secretion induced by R848.

Chain of hERG potassium channel (Q12809 whole entry): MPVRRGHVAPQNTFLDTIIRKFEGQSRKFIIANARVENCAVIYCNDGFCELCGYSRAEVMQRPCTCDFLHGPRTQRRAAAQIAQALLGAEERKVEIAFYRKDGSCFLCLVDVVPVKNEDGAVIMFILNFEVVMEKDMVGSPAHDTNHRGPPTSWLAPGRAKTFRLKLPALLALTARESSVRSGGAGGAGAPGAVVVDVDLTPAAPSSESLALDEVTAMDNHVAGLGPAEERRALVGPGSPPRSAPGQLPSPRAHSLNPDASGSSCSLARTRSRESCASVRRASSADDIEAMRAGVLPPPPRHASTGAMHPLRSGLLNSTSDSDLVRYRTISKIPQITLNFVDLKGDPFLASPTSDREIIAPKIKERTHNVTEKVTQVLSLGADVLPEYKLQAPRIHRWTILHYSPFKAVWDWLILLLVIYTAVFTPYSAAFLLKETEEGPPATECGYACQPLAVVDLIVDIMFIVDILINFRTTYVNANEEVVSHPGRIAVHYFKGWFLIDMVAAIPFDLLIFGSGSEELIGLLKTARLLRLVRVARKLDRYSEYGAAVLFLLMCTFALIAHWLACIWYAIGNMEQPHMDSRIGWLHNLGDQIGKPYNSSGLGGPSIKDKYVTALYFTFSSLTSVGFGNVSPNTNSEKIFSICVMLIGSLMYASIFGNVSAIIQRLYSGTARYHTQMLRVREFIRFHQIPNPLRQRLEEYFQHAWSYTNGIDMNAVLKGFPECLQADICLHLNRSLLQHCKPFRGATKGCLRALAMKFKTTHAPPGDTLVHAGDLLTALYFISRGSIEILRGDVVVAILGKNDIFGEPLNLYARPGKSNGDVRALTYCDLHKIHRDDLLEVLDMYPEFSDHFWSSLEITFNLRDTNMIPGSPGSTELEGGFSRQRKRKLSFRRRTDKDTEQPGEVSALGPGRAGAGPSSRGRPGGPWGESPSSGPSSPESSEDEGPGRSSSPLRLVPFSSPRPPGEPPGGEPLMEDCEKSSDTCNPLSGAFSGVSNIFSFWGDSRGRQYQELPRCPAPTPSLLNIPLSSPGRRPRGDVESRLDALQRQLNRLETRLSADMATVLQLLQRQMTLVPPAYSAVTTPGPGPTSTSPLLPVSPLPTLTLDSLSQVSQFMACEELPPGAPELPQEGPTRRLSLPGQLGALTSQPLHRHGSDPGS
Description for hERG potassium channel: The effects of compounds on hERG potassium channel (human Ether-a-go-go Related Gene potassium channel) currents were tested using the whole-cell manual voltage-clamp electrophysiological method.
CHO cells stably expressing hERG were cultured in cell culture dishes with a diameter of 35 mm and incubated at 37°C in a 5% CO2 incubator. The cells were passaged at a ratio of 1:5 every 48 hours. The culture medium was formulated as follows: 90% F12 (Invitrogen), 10% fetal bovine serum (Gibco), 100 g/mL G418 (Invitrogen), and 100 g/mL Hygromycin B (Invitrogen). On the day of the experiment, the cell culture medium was aspirated, and the cells were rinsed once with extracellular solution. […] The digestion solution was aspirated, and the cells were resuspended in extracellular solution and then transferred to experimental dishes for electrophysiological recording for later use.
On the day of testing, the compounds were prepared as 10 mM stock solutions in DMSO, then diluted to 1 mM with DMSO, and further diluted 1000-fold with extracellular solution to obtain the desired final test concentration.
hERG potassium channel currents were recorded at room temperature using the whole-cell patch-clamp technique in CHO cells stably expressing the hERG channel. The glass microelectrode was prepared by pulling the glass electrode blank (BF150-86-10, Sutter) with a puller, and the tip resistance after filling with the internal electrode solution was about 2-5 MΩ. The glass microelectrode was inserted into the amplifier probe and then connected to the patch-clamp amplifier. The clamping voltage and data recording were controlled and recorded by pClamp software via a computer, with a sampling frequency of 10 kHz and a filtering frequency of 2 kHz. After obtaining the whole-cell recording, cells were clamped at -100 mV. The hERG potassium current (IhERG) was evoked by applying a 2 s depolarizing voltage step from -100 mV to +20 mV, followed by repolarization to -50 mV for 1 s before returning to -100 mV. […]
Data were analyzed and processed using pClamp, GraphPad Prism 8 and Excel software. […]

For the compound `Cn1c(=O)n(C2CCC(=O)NC2=O)c2cccc(C#CCOC3CCN(C[C@H]4CC[C@H](n5cc(NC(=O)c6cnn7ccc(N8C[C@H]9C[C@@H]8CO9)nc67)c(C(F)F)n5)CC4)CC3)c21` (some centres unmarked) [KT-474, reference compound], the AUC(0-t) at 24 h in series [1] was 380 ng·h/mL. For the same compound, the Cmax in series [1] worked out at 31 ng/mL. The compound further registered an MRT inf in series [1] of 10.3 h. This compound had a half-life in series [1] of 402 min. For the same compound, the “C8hr Plasma” value is reported as 100 ng/mL in series [2] (PO 15 mpk twice daily), 262 ng/mL in series [2] (PO 50 mpk twice daily) and 578 ng/mL in series [2] (PO 150 mpk twice daily). For the same compound, the “C8hr Spleen” value amounted to 896 ng/mL in series [2] (PO 15 mpk twice daily), 1740 ng/mL in series [2] (PO 50 mpk twice daily) and 7262 ng/mL in series [2] (PO 150 mpk twice daily). Also, on hERG potassium channel, the “hERG (inhibition%)” value amounted to 47% @ 1 µM. Also, the IC50 was 18 nM in the series with IL-6 secretion (setting [6]); 41 nM in the series with IL-6 secretion (setting [7]); 14 nM in the series with IL-6 secretion (setting [8]); 13 nM with TNFα secretion (setting [9]); 31 nM in the series with TNFα secretion (setting [10]); 52 nM in the series with TNFα secretion (setting [11]).
Turning to `Cn1c(=O)n(C2CCC(=O)NC2=O)c2cccc(C#CC(C)(C)N3CCC(C(=O)N4CCC5(CC4)CC(n4cc(NC(=O)c6cnn7ccc(N8C[C@H]9C[C@@H]8CO9)nc67)c(C(F)F)n4)C5)CC3)c21` (some centres unmarked) [Example 56], the DC50 on IRAK4 [3] was 1.1 nM; on IRAK4 [4], 5 nM.
Turning to `Cn1c(=O)n(C2CCC(=O)NC2=O)c2cccc(C#CCOC3CCN(C(=O)N4CCC5(CC4)CC(n4cc(NC(=O)c6cnn7ccc(N8C[C@H]9C[C@@H]8CO9)nc67)c(C(F)F)n4)C5)CC3)c21` (some centres unmarked) [Example 13], the AUC(0-t) at 24 h in series [1] worked out at 521 ng·h/mL; in series [5] it was 16300 ng·h/mL. Also, the Cmax turned out to be 102 ng/mL in series [1] and 2160 ng/mL in series [5]. In addition, the results for the MRT inf in series [1] and in series [5] were 4.5 h and 10.9 h, respectively. In addition, the half-life in series [1] was 126 min; in series [5] it was 456 min. In addition, the IC50 is 13.2 nM with IL-6 secretion (setting [6]); 19.7 nM with IL-6 secretion (setting [7]); 10 nM with IL-6 secretion (setting [8]); 13 nM in the series on TNFα secretion (setting [9]); 22.3 nM in the series with TNFα secretion (setting [10]); 20 nM with TNFα secretion (setting [11]). Moreover, the AUC(0-inf) in series [5] was 19200 ng·h/mL. Moreover, the Tmax in series [5] stood at 1 h.

As usually defined, the AUC(0-t) is the area under the concentration-time curve up to a stated or last time point. Read a high AUC(0-t) as more exposure. In general, Cmax refers to the peak of the concentration-time curve. One may read the MRT inf as the average time that molecules of a dose stay in the body. In general, half-life refers to how long it takes for the measured level to halve. Low readings indicate rapid decline, high ones slow decline. In general, IC50 refers to the concentration that gives 50% inhibition. For orientation: DC50 means the midpoint of the concentration-degradation curve. Usually AUC(0-inf) stands for the area under the concentration-time curve extrapolated to infinity. A low value points to low exposure. In general, Tmax refers to the time at which the peak concentration occurs.
